{"source": "paper PMC12281424", "about": "“A Rac-specific competitive inhibitor of guanine nucleotide binding reduces metastasis in triple-negative breast cancer” (Cell Reports Medicine, 2025)", "key": {"Abl(T315I)(h)": {"molecular_target": "Abl(T315I)(h) (Homo sapiens, UniProt P00519, T315I)", "assay": "Kinase Profiler", "type": "biochemical", "description": "(§1) The kinase profiler was performed by the company Eurofins (Discovery, Panlab and Cerep)."}, "CK2α1(h)": {"molecular_target": "CK2α1(h) (Homo sapiens, UniProt P68400)", "sequence (P68400 whole entry)": "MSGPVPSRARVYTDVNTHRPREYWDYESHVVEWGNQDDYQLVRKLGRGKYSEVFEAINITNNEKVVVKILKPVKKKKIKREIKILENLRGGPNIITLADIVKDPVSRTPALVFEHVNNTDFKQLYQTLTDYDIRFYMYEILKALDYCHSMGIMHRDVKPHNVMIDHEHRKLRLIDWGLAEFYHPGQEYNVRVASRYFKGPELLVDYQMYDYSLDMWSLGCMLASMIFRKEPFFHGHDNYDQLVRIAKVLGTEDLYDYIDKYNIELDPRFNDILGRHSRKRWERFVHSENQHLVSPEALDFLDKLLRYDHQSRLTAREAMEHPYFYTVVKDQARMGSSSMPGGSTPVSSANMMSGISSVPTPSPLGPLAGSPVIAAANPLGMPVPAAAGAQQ", "assay": "Kinase Profiler", "type": "biochemical", "description": "as §1"}, "Flt3(h)": {"molecular_target": "Flt3(h) (Homo sapiens, UniProt P36888)", "assay": "Kinase Profiler", "type": "biochemical", "description": "as §1"}, "MST2(h)": {"molecular_target": "MST2(h) (Homo sapiens, UniProt Q13188)", "assay": "Kinase Profiler", "type": "biochemical", "description": "(§2) Blood cell counts, kinase profiler, safety screen, bacterial cytotoxicity, Ames, micronucleus assays were performed by the company Eurofins (France). The kinase profiler was performed by the company Eurofins (Discovery, Panlab and Cerep)."}, "Muscarinic M1": {"molecular_target": "Muscarinic M1 (Homo sapiens, UniProt P11229)", "sequence (P11229 whole entry)": "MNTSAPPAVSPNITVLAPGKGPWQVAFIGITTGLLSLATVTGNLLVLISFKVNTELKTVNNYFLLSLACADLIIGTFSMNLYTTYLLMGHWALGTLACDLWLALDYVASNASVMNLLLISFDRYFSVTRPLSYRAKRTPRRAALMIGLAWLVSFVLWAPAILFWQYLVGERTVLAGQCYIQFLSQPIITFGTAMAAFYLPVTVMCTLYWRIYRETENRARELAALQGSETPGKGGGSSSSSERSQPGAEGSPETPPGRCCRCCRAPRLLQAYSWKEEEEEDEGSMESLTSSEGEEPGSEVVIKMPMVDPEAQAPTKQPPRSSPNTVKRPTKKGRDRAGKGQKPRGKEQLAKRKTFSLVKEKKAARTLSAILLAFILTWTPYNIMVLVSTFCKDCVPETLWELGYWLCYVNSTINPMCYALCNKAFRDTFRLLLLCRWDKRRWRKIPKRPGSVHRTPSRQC", "assay": "Safety screen", "type": "binding", "description": "Blood cell counts, kinase profiler, safety screen, bacterial cytotoxicity, Ames, micronucleus assays were performed by the company Eurofins (France)."}, "CDC42": {"molecular_target": "CDC42 (Homo sapiens, UniProt P60953)", "sequence (P60953 whole entry)": "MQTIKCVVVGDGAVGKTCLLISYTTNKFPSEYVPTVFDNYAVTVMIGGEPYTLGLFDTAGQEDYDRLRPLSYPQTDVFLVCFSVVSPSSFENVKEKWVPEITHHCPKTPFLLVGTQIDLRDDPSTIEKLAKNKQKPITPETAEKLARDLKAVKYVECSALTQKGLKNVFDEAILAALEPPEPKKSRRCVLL", "assay": "GEF-stimulated nucleotide exchange", "type": "biochemical", "parameters": "Full-length RAC2, RHOG, RHOA and CDC42 were purified as previously described; made in house; TIAM DH-PH in E. coli Rosetta (DE3) pLysS", "conditions": "10^-5 M", "excerpt": "Figure 4 A41 selectively impairs RAC protein activation (A) Representative surface plasmon resonance (SPR) sensograms of binding of immobilized RHOA or CDC42 with indicated increasing concentrations of A41 (N > 3). (B) Effect of A41 on GEF-stimulated RAC2, RHOG, RHOA, and CDC42 nucleotide exchange. […] Kobs is expressed as mean ± SEM. ∗p < 0.001 vs. control. (C) Effect of A41 on RAC1 G30S activation. […] The GEF TRIO was used to induce nucleotide exchange (N = 3). Data are expressed as mean ± SEM. (D) Immunoblot analysis and associated quantification of RAC-GTP level and total RAC expression in NIH-3T3 fibroblasts expressing RAC wild-type (RAC1 WT) or RAC1 oncomutants (RAC1 P29S and RAC1b) in the absence (Ctrl) and presence of A41 (10 μM). RAC activation was measured as the ratio of RAC-GTP to total RAC and expressed relative to Ctrl condition. Data are presented as mean ± SEM. ∗∗∗p < 0.001 vs. controls.\nFull-length RAC1 carrying a 6xHis tag in C-terminus was purified as previously described.[64] […] Specific exchange activity toward RHOA determined by fluorescence kinetics is 0.04 s^−1M^−1.\nNucleotide exchange kinetics were measured by recording the increase in fluorescence following the association of mant-GTP on GDP-bound RHO protein or the decay in fluorescence following the dissociation of mant-GDP pre-loaded onto the RHO protein (λEx = 360 nm, λEm = 440 nm) as previously described.[39] […]"}, "TLK2(h)": {"molecular_target": "TLK2(h) (Homo sapiens, UniProt Q86UE8)", "assay": "Kinase Profiler", "type": "biochemical", "description": "as §1"}, "PI3K (p110b/p85b)(m)": {"molecular_target": "PI3K (p110b/p85b)(m) (Mus musculus, UniProt Q8BTI9)", "sequence (Q8BTI9 whole entry)": "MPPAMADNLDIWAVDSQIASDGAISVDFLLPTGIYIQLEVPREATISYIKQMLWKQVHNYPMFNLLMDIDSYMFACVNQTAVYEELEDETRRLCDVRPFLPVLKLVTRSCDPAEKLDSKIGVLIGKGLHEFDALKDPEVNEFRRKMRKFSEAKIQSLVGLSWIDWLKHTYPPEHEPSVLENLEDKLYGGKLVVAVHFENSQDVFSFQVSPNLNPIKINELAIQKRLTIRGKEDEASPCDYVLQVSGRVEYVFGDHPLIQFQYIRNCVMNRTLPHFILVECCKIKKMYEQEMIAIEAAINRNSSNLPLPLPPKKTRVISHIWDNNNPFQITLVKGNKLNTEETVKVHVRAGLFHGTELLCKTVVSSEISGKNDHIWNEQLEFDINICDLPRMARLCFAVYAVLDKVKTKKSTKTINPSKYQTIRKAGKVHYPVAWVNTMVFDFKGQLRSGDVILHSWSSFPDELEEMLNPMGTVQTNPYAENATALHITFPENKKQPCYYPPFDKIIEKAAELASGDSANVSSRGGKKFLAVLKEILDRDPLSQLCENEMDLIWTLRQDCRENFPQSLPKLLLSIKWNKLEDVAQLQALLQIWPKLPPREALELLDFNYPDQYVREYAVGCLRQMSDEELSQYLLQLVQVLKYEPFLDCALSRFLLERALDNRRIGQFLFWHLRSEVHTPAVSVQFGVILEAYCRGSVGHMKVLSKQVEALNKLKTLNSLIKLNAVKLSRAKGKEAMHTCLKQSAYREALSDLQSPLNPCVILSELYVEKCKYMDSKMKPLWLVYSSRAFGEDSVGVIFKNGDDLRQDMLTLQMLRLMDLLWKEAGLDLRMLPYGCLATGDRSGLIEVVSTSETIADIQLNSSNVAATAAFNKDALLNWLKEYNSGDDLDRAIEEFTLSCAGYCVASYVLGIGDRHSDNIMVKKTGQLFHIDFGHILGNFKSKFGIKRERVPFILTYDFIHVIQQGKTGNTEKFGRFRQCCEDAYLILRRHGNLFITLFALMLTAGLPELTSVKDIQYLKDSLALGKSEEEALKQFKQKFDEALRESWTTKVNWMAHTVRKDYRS", "sequence (O08908 whole entry partner)": "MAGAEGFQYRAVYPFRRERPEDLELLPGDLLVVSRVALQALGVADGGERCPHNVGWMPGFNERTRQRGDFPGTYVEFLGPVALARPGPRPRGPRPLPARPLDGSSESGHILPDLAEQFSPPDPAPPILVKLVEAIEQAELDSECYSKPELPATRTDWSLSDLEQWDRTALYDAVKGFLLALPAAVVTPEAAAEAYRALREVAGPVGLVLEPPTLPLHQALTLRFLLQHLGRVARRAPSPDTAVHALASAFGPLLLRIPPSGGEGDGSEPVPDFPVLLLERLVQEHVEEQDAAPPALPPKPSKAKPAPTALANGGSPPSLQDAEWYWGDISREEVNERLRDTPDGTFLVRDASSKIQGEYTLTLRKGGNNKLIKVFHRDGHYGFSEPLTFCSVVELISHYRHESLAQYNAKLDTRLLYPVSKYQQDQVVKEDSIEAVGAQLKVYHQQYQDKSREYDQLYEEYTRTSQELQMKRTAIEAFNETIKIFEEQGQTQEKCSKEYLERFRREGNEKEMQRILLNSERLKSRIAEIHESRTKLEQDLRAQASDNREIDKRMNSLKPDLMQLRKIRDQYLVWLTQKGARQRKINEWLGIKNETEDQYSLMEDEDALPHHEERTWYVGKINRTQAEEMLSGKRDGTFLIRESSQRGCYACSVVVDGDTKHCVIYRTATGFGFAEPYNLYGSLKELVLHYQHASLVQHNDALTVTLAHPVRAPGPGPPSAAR", "assay": "Kinase Profiler", "type": "biochemical", "description": "as §2"}, "MEKK2(h)": {"molecular_target": "MEKK2(h) (Homo sapiens, UniProt Q9Y2U5)", "assay": "Kinase Profiler", "type": "biochemical", "description": "as §1"}, "MuSK(h)": {"molecular_target": "MuSK(h) (Homo sapiens, UniProt O15146)", "sequence (O15146 24-869)": "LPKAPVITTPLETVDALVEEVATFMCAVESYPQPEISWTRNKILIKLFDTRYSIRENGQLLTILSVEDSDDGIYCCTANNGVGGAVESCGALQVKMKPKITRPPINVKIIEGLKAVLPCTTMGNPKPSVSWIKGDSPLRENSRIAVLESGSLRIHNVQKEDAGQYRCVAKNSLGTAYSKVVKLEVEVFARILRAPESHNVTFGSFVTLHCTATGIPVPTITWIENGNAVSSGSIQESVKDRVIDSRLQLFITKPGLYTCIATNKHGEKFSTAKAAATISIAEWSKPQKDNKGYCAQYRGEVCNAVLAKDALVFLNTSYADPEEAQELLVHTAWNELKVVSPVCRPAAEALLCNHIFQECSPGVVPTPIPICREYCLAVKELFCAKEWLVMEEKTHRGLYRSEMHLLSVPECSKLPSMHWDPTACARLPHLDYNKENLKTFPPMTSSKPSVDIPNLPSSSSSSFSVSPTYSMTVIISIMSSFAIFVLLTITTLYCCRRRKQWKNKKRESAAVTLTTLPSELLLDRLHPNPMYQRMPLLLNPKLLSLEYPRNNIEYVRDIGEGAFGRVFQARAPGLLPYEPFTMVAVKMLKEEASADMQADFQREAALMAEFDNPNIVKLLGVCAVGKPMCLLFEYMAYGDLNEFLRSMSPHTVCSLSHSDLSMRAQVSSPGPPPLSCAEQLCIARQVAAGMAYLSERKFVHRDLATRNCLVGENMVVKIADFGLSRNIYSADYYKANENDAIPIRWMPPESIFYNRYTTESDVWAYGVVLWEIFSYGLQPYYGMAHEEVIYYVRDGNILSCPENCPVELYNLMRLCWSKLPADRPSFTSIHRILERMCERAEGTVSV", "assay": "Kinase Profiler", "type": "biochemical", "description": "as §1"}, "STK33(h)": {"molecular_target": "STK33(h) (Homo sapiens, UniProt Q9BYT3)", "sequence (Q9BYT3 whole entry)": "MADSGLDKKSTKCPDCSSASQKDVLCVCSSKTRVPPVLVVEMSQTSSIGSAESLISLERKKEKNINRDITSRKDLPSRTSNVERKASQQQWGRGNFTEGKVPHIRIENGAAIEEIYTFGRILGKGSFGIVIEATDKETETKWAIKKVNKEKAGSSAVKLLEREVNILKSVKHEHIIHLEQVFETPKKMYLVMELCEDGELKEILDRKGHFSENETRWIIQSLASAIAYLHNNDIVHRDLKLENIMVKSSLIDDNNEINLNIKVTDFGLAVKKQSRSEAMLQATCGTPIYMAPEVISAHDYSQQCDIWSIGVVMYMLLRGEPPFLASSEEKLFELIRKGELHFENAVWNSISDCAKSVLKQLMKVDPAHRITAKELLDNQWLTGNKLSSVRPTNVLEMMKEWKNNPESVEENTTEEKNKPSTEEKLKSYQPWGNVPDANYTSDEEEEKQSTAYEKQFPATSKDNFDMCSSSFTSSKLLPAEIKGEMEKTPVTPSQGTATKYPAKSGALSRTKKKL", "assay": "Kinase Profiler", "type": "biochemical", "description": "as §1"}, "GCK(h)": {"molecular_target": "GCK(h) (Homo sapiens, UniProt Q12851)", "sequence (Q12851 whole entry)": "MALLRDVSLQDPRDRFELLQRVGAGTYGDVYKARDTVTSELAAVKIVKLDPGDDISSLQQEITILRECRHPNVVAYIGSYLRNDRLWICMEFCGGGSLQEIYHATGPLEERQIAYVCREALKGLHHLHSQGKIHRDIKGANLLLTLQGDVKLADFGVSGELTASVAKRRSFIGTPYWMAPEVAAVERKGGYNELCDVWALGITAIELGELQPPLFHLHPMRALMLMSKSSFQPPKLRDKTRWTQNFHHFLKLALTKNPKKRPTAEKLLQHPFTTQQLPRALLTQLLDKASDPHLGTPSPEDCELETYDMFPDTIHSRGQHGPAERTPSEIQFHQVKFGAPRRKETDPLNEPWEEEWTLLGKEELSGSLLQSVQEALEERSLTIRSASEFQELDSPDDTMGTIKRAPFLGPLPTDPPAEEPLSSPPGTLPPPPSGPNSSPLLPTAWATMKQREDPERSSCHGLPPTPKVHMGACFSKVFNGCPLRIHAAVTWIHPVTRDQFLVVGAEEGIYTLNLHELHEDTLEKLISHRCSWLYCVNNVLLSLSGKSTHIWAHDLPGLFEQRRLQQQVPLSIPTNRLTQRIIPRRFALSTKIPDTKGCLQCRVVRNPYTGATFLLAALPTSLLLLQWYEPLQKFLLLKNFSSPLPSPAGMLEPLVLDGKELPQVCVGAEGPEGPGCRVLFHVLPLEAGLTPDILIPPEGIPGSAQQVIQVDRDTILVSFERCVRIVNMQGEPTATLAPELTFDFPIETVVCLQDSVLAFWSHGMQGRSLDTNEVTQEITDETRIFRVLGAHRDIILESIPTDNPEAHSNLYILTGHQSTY", "assay": "Kinase Profiler", "type": "biochemical", "description": "as §1"}, "SRPK1(h)": {"molecular_target": "SRPK1(h) (Homo sapiens, UniProt Q96SB4)", "assay": "Kinase Profiler", "type": "biochemical", "description": "as §1"}, "PKCι(h)": {"molecular_target": "PKCι(h) (Homo sapiens, UniProt P41743)", "assay": "Kinase Profiler", "type": "biochemical", "description": "as §1"}}}
{"smiles": "COc1ccc(OC)c(NS(=O)(=O)c2ccc(NC(=O)CCSc3ccc(C)cc3)cc2)c1", "note": "[Compound A41]", "values": [{"measurement": "Activity(%)", "setting": "Abl(T315I)(h)", "value": 117, "unit": "%"}, {"measurement": "Activity(%)", "setting": "CK2α1(h)", "value": 80, "unit": "%"}, {"measurement": "Activity(%)", "setting": "Flt3(h)", "value": 98, "unit": "%"}, {"measurement": "Activity(%)", "setting": "MST2(h)", "value": 88, "unit": "%"}, {"measurement": "% inh.", "setting": "Muscarinic M1", "value": 11, "unit": "%"}, {"measurement": "activation of CDC42 induced by TIAM DH-PH", "setting": "CDC42", "value": "did not change the activation"}, {"measurement": "Activity(%)", "setting": "TLK2(h)", "value": 101, "unit": "%"}, {"measurement": "Activity(%)", "setting": "PI3K (p110b/p85b)(m)", "value": 100, "unit": "%"}, {"measurement": "Activity(%)", "setting": "MEKK2(h)", "value": 102, "unit": "%"}, {"measurement": "Activity(%)", "setting": "MuSK(h)", "value": 112, "unit": "%"}, {"measurement": "Activity(%)", "setting": "STK33(h)", "value": 98, "unit": "%"}, {"measurement": "Activity(%)", "setting": "GCK(h)", "value": 114, "unit": "%"}, {"measurement": "Activity(%)", "setting": "SRPK1(h)", "value": 114, "unit": "%"}, {"measurement": "Activity(%)", "setting": "PKCι(h)", "value": 93, "unit": "%"}]}
